Measured values published in patent publication US11053235B2, “Substituted 1,4-dihydropyrimidines for the treatment of HBV infection or HBV-induced diseases” (Janssen Sciences Ireland Unlimited Company, priority 2018, dated 2021).
Where two headings read alike, the source gives them in different places.

Assays:
Format in all cases: cell-based
HepG2.2.15 cells = assay: Cytotoxicity determination in HepG2.2.15 cells (CCK-8); details: 6 days treatment, CCK-8, highest concentration 100 uM
Method in brief: (§1)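 HepG2.2.15 cells seeded at 5,000 cells/well in 2% FBS medium and exposed to compounds for 6 days (medium refreshed once), 8 three-fold dilutions from 100 uM. Viability read by CCK-8 after 2.5 h at 37 °C, absorbance 450 nm with 630 nm reference; CC50 calculated.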

HBV = assay: Anti-viral assay in HepG2.2.15 cells: HBV inhibitory activity (HBV DNA in culture medium by q-PCR); details: HepG2.2.15 cells, 6 days treatment, HBV DNA in culture medium by q-PCR, highest concentration 10 uM, read-out: EC50
Method in brief: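 HepG2.2.15 cells seeded at 40,000/well in 2% FBS medium, dosed next day for 6 days (medium refreshed once midway); 8-point 3-fold dilutions from 10 uM top. HBV DNA in culture medium extracted and quantified by q-PCR; EC50 calculated from dose-response.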

[1] = Cytotoxicity determination in HepG2.2.15 cells (CCK-8); details: human, 6 days treatment, CCK-8, highest concentration 100 uM
Method in brief: as §1

[2] = Hepatitis B virus, HepG2.2.15, 144 h

SMILES | CC50 (HepG2.2.15 cells) | EC50 (HBV) | CC50 at 6 days [1] | EC50 (HBV; [2])
CCOC(=O)C1=C(C2CC=C(c3nc(C(=O)O)co3)CC2)NC(c2nccs2)=NC1c1ccc(F)c(F)c1Cl (single isomer, unassigned) [Compound I-13-D, 2-(4-(6-(2-chloro-3,4-difluorophenyl)-5-(ethoxycarbonyl)-2-(thiazol-2-yl)-3,6-dihydropyrimidin-4-yl)cyclohex-1-en-1-yl)oxazole-4-carboxylic Acid] | 6.09 µM | 3.2 nM |  | 
COC(=O)C1=C(C2CCN(c3ncc(OC)c(C(=O)O)n3)CC2)NC(c2nccs2)=NC1c1ccc(F)c(F)c1C (single isomer, unassigned) [II-95-B, 2-(4-(6-(3,4-Difluoro-2-methylphenyl)-5-(methoxycarbonyl)-2-(thiazol-2-yl)-3,6-dihydropyrimidin-4-yl)piperidin-1-yl)-5-methoxypyrimidine-4-carboxylic Acid] |  |  | 25.8 µM | 8.6 nM
CCOC(=O)C1=C(C2CCN(c3ncc(OCC)c(C(=O)O)n3)CC2)NC(c2nccs2)=NC1c1ccc(F)c(F)c1Cl (single isomer, unassigned) [II-96-B, 2-(4-(6-(2-chloro-3,4-difluorophenyl)-5-(ethoxycarbonyl)-2-(thiazol-2-yl)-3,6-dihydropyrimidin-4-yl)piperidin-1-yl)-5-ethoxypyrimidine-4-carboxylic Acid] |  |  | 16.3 µM | 5.1 nM
CCOC(=O)C1=C(C2CCN(c3ncc(N(C)C)c(C(=O)O)n3)CC2)NC(c2nccs2)=NC1c1cccc(F)c1Br (single isomer, unassigned) [II-97-B, 2-(4-(6-(2-Bromo-3-fluorophenyl)-5-(ethoxycarbonyl)-2-(thiazol-2-yl)-3,6-dihydropyrimidin-4-yl)piperidin-1-yl)-5-(dimethylamino)pyrimidine-4-carboxylic Acid] |  |  | 27.6 µM | 14 nM
COC(=O)C1=C(C2CCN(c3ncc(C)c(C(=O)O)n3)CC2)NC(c2nccs2)=NC1c1cccc(F)c1Br (single isomer, unassigned) [II-98-B, 2-(4-(6-(2-Bromo-3-fluorophenyl)-5-(methoxycarbonyl)-2-(thiazol-2-yl)-3,6-dihydropyrimidin-4-yl)piperidin-1-yl)-5-methylpyrimidine-4-carboxylic Acid] |  |  | 21.4 µM | 20 nM
COC(=O)C1=C(C2CCN(c3ncc(C)c(C(=O)O)n3)CC2)NC(c2nccs2)=NC1c1ccc(F)cc1Br (single isomer, unassigned) [II-99-B, 2-(4-(6-(2-Bromo-4-fluorophenyl)-5-(methoxycarbonyl)-2-(thiazol-2-yl)-3,6-dihydropyrimidin-4-yl)piperidin-1-yl)-5-methylpyrimidine-4-carboxylic Acid] |  |  | 20.7 µM | 7.3 nM
CCOC(=O)C1=C(C2CCN(c3ncc(N(C)C)c(C(=O)O)n3)CC2)NC(c2nccs2)=NC1c1ccc(F)cc1Br (single isomer, unassigned) [II-100-B, 2-(4-(6-(2-bromo-4-fluorophenyl)-5-(ethoxycarbonyl)-2-(thiazol-2-yl)-3,6-dihydropyrimidin-4-yl)piperidin-1-yl)-5-(dimethylamino)pyrimidine-4-carboxylic Acid] |  |  | 24.5 µM | 22 nM
COC(=O)C1=C(C2CCN(c3ccc(CCC(=O)O)cn3)CC2)NC(c2nccs2)=NC1c1ccc(F)cc1Cl (single isomer, unassigned) [II-101-B, 3-(6-(4-(6-(2-Chloro-4-fluorophenyl)-5-(methoxycarbonyl)-2-(thiazol-2-yl)-3,6-dihydropyrimidin-4-yl)piperidin-1-yl)pyridin-3-yl)propanoic Acid] |  |  | 16.6 µM | < 4.6 nM
CCOC(=O)Cc1ccnc(N2CCC(C3=C(C(=O)OC)C(c4ccc(F)cc4Cl)N=C(c4nccs4)N3)CC2)n1 (single isomer, unassigned) [XI-13-S, Methyl 4-(2-chloro-4-fluorophenyl)-6-(1-(4-(2-ethoxy-2-oxoethyl)pyrimidin-2-yl)piperidin-4-yl)-2-(thiazol-2-yl)-1,4-dihydropyrimidine-5-carboxylate] |  |  | > 100 µM | 150 nM
CCOC(=O)C1=C(C2CCN(c3nc(C(=O)OCC)co3)C2)NC(c2nccs2)=NC1c1ccc(F)c(F)c1Cl (single isomer, unassigned) [XI-85-M, Ethyl 2-(3-(6-(2-chloro-3,4-difluorophenyl)-5-(ethoxycarbonyl)-2-(thiazol-2-yl)-3,6-dihydropyrimidin-4-yl)pyrrolidin-1-yl)oxazole-4-carboxylate] |  |  | 11.6 µM | 770 nM
CCOC(=O)C1=C(C2CCC(c3cnn(C(C)CC(=O)O)c3)CC2)NC(c2nccs2)=NC1c1ccc(F)c(F)c1Cl (stereo not shown) [Compound I-31, 3-(4-(4-(6-(2-Chloro-3,4-difluorophenyl)-5-(ethoxycarbonyl)-2-(thiazol-2-yl)-3,6-dihydropyrimidin-4-yl)cyclohexyl)-1H-pyrazol-1-yl)butanoic Acid] |  |  | 3.78 µM | 59 nM
CCOC(=O)C1=C(C2CCC(c3cnn(C4CC(C(=O)O)C4)c3)CC2)NC(c2nccs2)=NC1c1ccc(F)c(F)c1Cl (stereo not shown) [Compound I-34, 3-(4-(4-(6-(2-Chloro-3,4-difluorophenyl)-5-(ethoxycarbonyl)-2-(thiazol-2-yl)-3,6-dihydropyrimidin-4-yl)cyclohexyl)-1H-pyrazol-1-yl)cyclobutanecarboxylic acid] |  |  | 2.79 µM | 55 nM
CCOC(=O)C1=C([C@H]2CC[C@H](c3nc(C(=O)O)no3)CC2)NC(c2nccs2)=NC1c1ccc(F)c(F)c1Cl (stereo partly drawn) [Compound I-45, (trans)-5-(-4-(6-(2-Chloro-3,4-difluorophenyl)-5-(ethoxycarbonyl)-2-(thiazol-2-yl)-3,6-dihydropyrimidin-4-yl)cyclohexyl)-1,2,4-oxadiazole-3-carboxylic Acid] |  |  | 16.8 µM | 71 nM
CCOC(=O)C1=C(C2CCN(c3ncc(C(=O)O)cn3)C(C)C2)NC(c2nccs2)=NC1c1ccc(F)c(F)c1Cl (stereo not shown) [II-34-F, 2-(4-(6-(2-chloro-3,4-difluorophenyl)-5-(ethoxycarbonyl)-2-(thiazol-2-yl)-3,6-dihydropyrimidin-4-yl)-2-methylpiperidin-1-yl)pyrimidine-5-carboxylic acid] |  |  | 7.96 µM | < 4.6 nM
